Measured values taken from patent US20260200920A1, “SUBSTITUTED AMINOPYRIDINE COMPOUNDS FOR USE AS AKT1 INHIBITORS” (Atavistik Bio, Inc., priority 2023, published 2026).

What was measured:
[1] = target: T1, human recombinant kinase full-length AKT1 E17K (Homo sapiens, UniProt P31749, E17K); test: AKT1 E17K kinase assay (TR-FRET, Lance); assay type: biochemical; conditions: 0.6 nM AKT1 E17K, 50 nM Ulight-CREBtide, either 50 μM ATP or 2 mM ATP, 60 min at RT
T1 construct: Purified human recombinant kinase full-length AKT1 E17K was expressed in insect cells; made in house; host or cells: insect cells
T1 sequence (P31749 whole entry E17K): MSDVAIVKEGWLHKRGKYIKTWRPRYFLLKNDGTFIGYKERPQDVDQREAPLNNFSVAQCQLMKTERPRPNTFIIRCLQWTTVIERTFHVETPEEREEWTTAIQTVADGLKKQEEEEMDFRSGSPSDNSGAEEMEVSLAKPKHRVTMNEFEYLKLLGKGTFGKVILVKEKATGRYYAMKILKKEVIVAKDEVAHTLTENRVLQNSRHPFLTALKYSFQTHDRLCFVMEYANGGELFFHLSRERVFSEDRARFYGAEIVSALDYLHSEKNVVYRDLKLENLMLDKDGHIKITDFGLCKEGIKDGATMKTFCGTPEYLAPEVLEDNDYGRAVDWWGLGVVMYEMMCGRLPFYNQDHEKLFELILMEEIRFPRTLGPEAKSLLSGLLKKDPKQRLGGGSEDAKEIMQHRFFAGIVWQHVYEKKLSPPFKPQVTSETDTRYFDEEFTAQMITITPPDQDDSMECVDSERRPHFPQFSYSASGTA
Procedure, shortened: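 IC50 came from a 10-point, 4-parameter fit of the 665/620 TR-FRET ratio read with Eu-anti-phospho-CREB (Ser133). Reaction at RT for 60 min after 15 min compound preincubation, using 0.6 nM PDPK1-activated full-length AKT1 E17K (insect-cell), 50 nM Ulight-CREBtide, ATP at 50 μM or 2 mM, HEPES pH 7.5, 1% DMSO.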

[2] = target: T2, human recombinant kinase full-length wildtype AKT1 (Homo sapiens, UniProt P31749); test: AKT1 kinase assay (wildtype, TR-FRET, Lance); assay type: biochemical; conditions: 0.6 nM wildtype AKT1, 50 nM Ulight-CREBtide, either 50 μM ATP or 2 mM ATP, 60 min at RT
T2 construct: Purified human recombinant kinase full-length wildtype AKT1 was expressed in insect cells; made in house; host or cells: insect cells
T2 sequence (P31749 whole entry): as the sequence (P31749 whole entry E17K) above, with K17E counted along it
Procedure, shortened: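 TR-FRET 665/620 ratio quantified phospho-CREBtide formed by PDPK1-activated full-length human AKT1 (0.6 nM, insect-cell-derived) over 60 min at RT with 50 nM ULight-CREBtide and either 50 μM or 2 mM ATP. Compounds were preincubated 15 min with enzyme; IC50 came from 4-parameter fits of 10-point duplicates.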

Row | IC50 [1] | IC50 [2] | Compound
1 | 500 to 2000 nM | < 20 µM | Cc1cc(NC(=O)C2CC3(CC(C(=O)O)C3)C2)ccc1-n1c(-c2cccnc2N)nc2ccc(-c3ccccc3)nc21 (stereo not drawn) [Compound I-100, 6-((4-(2-(2-aminopyridin-3-yl)-5-phenyl-3H-imidazo[4,5-b]pyridin-3-yl)-3-methylphenyl)carbamoyl)spiro[3.3]heptane-2-carboxylic acid]
2 | 500 to 2000 nM | < 20 µM | Cc1cc(NC(=O)[C@H]2CC[C@H](C(=O)O)CC2)ccc1-n1c(-c2cccnc2N)nc2ccc(-c3ccccc3)nc21 [Compound I-102, (1r,4r)-4-((4-(2-(2-aminopyridin-3-yl)-5-phenyl-3H-imidazo[4,5-b]pyridin-3-yl)-3-methylphenyl)carbamoyl)cyclohexane-1-carboxylic acid]
3 | ≥ 2000 nM | < 20 µM | Cc1c(-n2c(-c3cccnc3N)nc3ccc(-c4ccccc4)nc32)ccc(NC(=O)[C@H]2CC[C@H](C(=O)O)CC2)c1F [Compound I-103, (1r,4r)-4-((4-(2-(2-aminopyridin-3-yl)-5-phenyl-3H-imidazo[4,5-b]pyridin-3-yl)-2-fluoro-3-methylphenyl)carbamoyl)cyclohexane-1-carboxylic acid]
4 | 500 to 2000 nM | < 20 µM | Cc1nc(NC(=O)C2CCC(C(=O)O)CC2)ccc1-n1c(-c2cccnc2N)nc2ccc(-c3ccccc3)nc21 (stereo not drawn) [Compound I-108, 4-((5-(2-(2-aminopyridin-3-yl)-5-phenyl-3H-imidazo[4,5-b]pyridin-3-yl)-6-methylpyridin-2-yl)carbamoyl)cyclohexane-1-carboxylic acid]
5 | 500 to 2000 nM | < 20 µM | Cc1nc(NC2CCC(C(=O)O)CC2)ccc1-n1c(-c2cccnc2N)nc2ccc(-c3ccccc3)nc21 (stereo not drawn) [Compound I-109, 4-((5-(2-(2-aminopyridin-3-yl)-5-phenyl-3H-imidazo[4,5-b]pyridin-3-yl)-6-methylpyridin-2-yl)amino)cyclohexane-1-carboxylic acid]
6 | 500 to 2000 nM | < 20 µM | COC(=O)[C@H]1CC[C@H](C(=O)Nc2ccc(-n3c(-c4cccnc4N)nc4ccc(-c5ccccc5)nc43)cn2)CC1 [Compound I-113, methyl (1r,4r)-4-((5-(2-(2-aminopyridin-3-yl)-5-phenyl-3H-imidazo[4,5-b]pyridin-3-yl)pyridin-2-yl)carbamoyl)cyclohexane-1-carboxylate]
7 | < 500 nM | < 20 µM | Nc1ncccc1-c1nc2ccc(-c3ccccc3)nc2n1-c1ccc(NC(=O)[C@H]2CC[C@H](C(N)=O)CC2)nc1 [Compound I-115, (1r,4r)-N-(5-(2-(2-aminopyridin-3-yl)-5-phenyl-3H-imidazo[4,5-b]pyridin-3-yl)pyridin-2-yl)cyclohexane-1,4-dicarboxamide]
8 | < 500 nM | < 20 µM | Cc1nc(NC(=O)[C@H]2CC[C@H](C(=O)O)CC2)ccc1-n1c(-c2cccnc2N)nc2ccc(-c3ccccc3)nc21 [Compound I-118, (1r,4r)-4-((5-(2-(2-aminopyridin-3-yl)-5-phenyl-3H-imidazo[4,5-b]pyridin-3-yl)-6-methylpyridin-2-yl)carbamoyl)cyclohexane-1-carboxylic acid]

Continued, molecule first:

Row | Compound | IC50 [1] | IC50 [2]
9 | CN(Cc1ccc(-n2c(-c3cccnc3N)nc3ccc(-c4ccccc4)nc32)cc1)[C@H]1CC[C@@H](C(=O)O)CC1 [Compound I-95, (1s,4s)-4-((4-(2-(2-aminopyridin-3-yl)-5-phenyl-3H-imidazo[4,5-b]pyridin-3-yl)benzyl)(methyl)amino)cyclohexane-1-carboxylic acid] | < 500 nM | < 20 µM
10 | CN(Cc1ccc(-n2c(-c3cccnc3N)nc3ccc(-c4ccccc4)nc32)cc1)[C@H]1CC[C@H](C(=O)O)CC1 [Compound I-96, (1r,4r)-4-((4-(2-(2-aminopyridin-3-yl)-5-phenyl-3H-imidazo[4,5-b]pyridin-3-yl)benzyl)(methyl)amino)cyclohexane-1-carboxylic acid] | < 500 nM | < 20 µM
11 | Nc1ncccc1-c1nc2ccc(-c3ccccc3)nc2n1-c1ccc(CN2CCC(CC(=O)O)CC2)cc1 [Compound I-97, 2-(1-(4-(2-(2-aminopyridin-3-yl)-5-phenyl-3H-imidazo[4,5-b]pyridin-3-yl)benzyl)piperidin-4-yl)acetic acid] | 500 to 2000 nM | < 20 µM
12 | CC(C(=O)O)C1CCN(Cc2ccc(-n3c(-c4cccnc4N)nc4ccc(-c5ccccc5)nc43)cc2)CC1 (stereo not drawn) [Compound I-98, 2-(1-(4-(2-(2-aminopyridin-3-yl)-5-phenyl-3H-imidazo[4,5-b]pyridin-3-yl)benzyl)piperidin-4-yl)propanoic acid] | ≥ 2000 nM | < 20 µM
13 | CC1(C)CC(C(=O)O)CCN1Cc1ccc(-n2c(-c3cccnc3N)nc3ccc(-c4ccccc4)nc32)cc1 (stereo not drawn) [Compound I-99, 1-(4-(2-(2-aminopyridin-3-yl)-5-phenyl-3H-imidazo[4,5-b]pyridin-3-yl)benzyl)-2,2-dimethylpiperidine-4-carboxylic acid] | ≥ 2000 nM | < 20 µM
14 | Cc1c(-n2c(-c3cccnc3N)nc3ccc(-c4ccccc4)nc32)ccc(NC(=O)C2CC3(CC(C(=O)O)C3)C2)c1F (stereo not drawn) [Compound I-101, 6-((4-(2-(2-aminopyridin-3-yl)-5-phenyl-3H-imidazo[4,5-b]pyridin-3-yl)-2-fluoro-3-methylphenyl)carbamoyl)spiro[3.3]heptane-2-carboxylic acid] | ≥ 2000 nM | < 20 µM
15 | CC(C(=O)O)C1CCN(Cc2ccc(-n3c(-c4cccnc4N)nc4ccc(-c5ccccc5)nc43)cc2)C1 (stereo not drawn) [Compound I-104, 2-[1-[[4-[2-(2-amino-3-pyridyl)-5-phenyl-imidazo[4,5-b]pyridin-3-yl]phenyl]methyl]pyrrolidin-3-yl]propanoic acid] | 500 to 2000 nM | < 20 µM
16 | CC(C)(C(=O)O)C1CCN(Cc2ccc(-n3c(-c4cccnc4N)nc4ccc(-c5ccccc5)nc43)cc2)C1 (stereo not drawn) [Compound I-105, 2-[1-[[4-[2-(2-amino-3-pyridyl)-5-phenyl-imidazo[4,5-b]pyridin-3-yl]phenyl]methyl]pyrrolidin-3-yl]-2-methyl-propanoic acid] | 500 to 2000 nM | < 20 µM
17 | Nc1ncccc1-c1nc2ccc(-c3ccccc3)nc2n1-c1ccc(NC(=O)N2CCC(C(=O)O)CC2)c(F)c1 [Compound I-106, 1-[[4-[2-(2-amino-3-pyridyl)-5-phenyl-imidazo[4,5-b]pyridin-3-yl]-2-fluoro-phenyl]carbamoyl]piperidine-4-carboxylic acid] | 500 to 2000 nM | < 20 µM
18 | Nc1ncccc1-c1nc2ccc(-c3ccccc3)nc2n1-c1ccc(N2CC3(CC(C(=O)O)C3)C2)nc1 [Compound I-107, 2-(5-(2-(2-aminopyridin-3-yl)-5-phenyl-3H-imidazo[4,5-b]pyridin-3-yl)pyridin-2-yl)-2-azaspiro[3.3]heptane-6-carboxylic acid] | ≥ 2000 nM | < 20 µM
19 | Nc1ncccc1-c1nc2ccc(-c3ccccc3)cc2n1-c1ccc(NC(=O)C2CCC(C(=O)O)C2)nc1 (stereo not drawn) [Compound I-110, 3-((5-(2-(2-aminopyridin-3-yl)-6-phenyl-1H-benzo[d]imidazol-1-yl)pyridin-2-yl)carbamoyl)cyclopentane-1-carboxylic acid] | ≥ 2000 nM | < 20 µM
20 | Nc1ncccc1-c1nc2ccc(-c3ccccc3)cc2n1-c1ccc(NC(=O)C2CCCC(C(=O)O)C2)nc1 (stereo not drawn) [Compound I-111, 3-((5-(2-(2-aminopyridin-3-yl)-6-phenyl-1H-benzo[d]imidazol-1-yl)pyridin-2-yl)carbamoyl)cyclohexane-1-carboxylic acid] | 500 to 2000 nM | < 20 µM
21 | Nc1ncccc1-c1nc2ccc(-c3ccccc3)nc2n1-c1ccc(NC(=O)C2CC3(CC(C(=O)O)C3)C2)nc1 (stereo not drawn) [Compound I-112, 6-((5-(2-(2-aminopyridin-3-yl)-5-phenyl-3H-imidazo[4,5-b]pyridin-3-yl)pyridin-2-yl)carbamoyl)spiro[3.3]heptane-2-carboxylic acid] | < 500 nM | < 20 µM
22 | Nc1ncccc1-c1nc2ccc(-c3ccccc3)nc2n1-c1ccc(NC[C@H]2CC[C@@H](C(=O)O)CC2)nc1 [Compound I-114, (1s,4s)-4-(((5-(2-(2-aminopyridin-3-yl)-5-phenyl-3H-imidazo[4,5-b]pyridin-3-yl)pyridin-2-yl)amino)methyl)cyclohexane-1-carboxylic acid] | 500 to 2000 nM | < 20 µM
23 | Cn1nccc1-c1ccc2nc(-c3cccnc3N)n(-c3ccc(NC(=O)[C@H]4CC[C@H](C(=O)O)CC4)nc3)c2n1 [Compound I-116, (1r,4r)-4-((5-(2-(2-aminopyridin-3-yl)-5-(1-methyl-1H-pyrazol-5-yl)-3H-imidazo[4,5-b]pyridin-3-yl)pyridin-2-yl)carbamoyl)cyclohexane-1-carboxylic acid] | 500 to 2000 nM | < 20 µM
24 | CC(C)(C)c1ccc2nc(-c3cccnc3N)n(-c3ccc(NC(=O)[C@H]4CC[C@H](C(=O)O)CC4)nc3)c2c1 [Compound I-117, (1r,4r)-4-((5-(2-(2-aminopyridin-3-yl)-6-(tert-butyl)-1H-benzo[d]imidazol-1-yl)pyridin-2-yl)carbamoyl)cyclohexane-1-carboxylic acid] | ≥ 2000 nM | < 20 µM
